Reference: PubChem BioAssay (NCI)
Several values for one entry are separate records, joined by “and”; a condition that tells them apart may be missing. Equal entries are not always repeated.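 Step 1: Grow cells in 96-well plates. Step 2: Expose to compound for 48 hours at 5 concentrations. Step 3: Interpolate endpoints linearly; if unreached, use highest concentration. GI50 is the concentration that inhibits growth by half. TGI marks complete inhibition of growth.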

Tests used:
Assay in all cases: growth of human tumour cells (NCI), 48 h
[1] = system: RPMI-8226 leukemia
[2] = system: SF-295 CNS
[3] = system: HCC-2998 colon
[4] = system: 786-0 renal
[5] = system: SK-MEL-5 melanoma
[6] = system: HCT-116 colon
[7] = system: NCI-H23 lung
[8] = system: DU-145 prostate
[9] = system: EKVX NSCLC
[10] = system: T-47D breast

Row | SMILES | TGI [1] | TGI [2] | TGI [3] | TGI [4] | TGI [5] | TGI [6] [µM] | TGI [7] [µM] | TGI [8] [µM] | TGI [9] | GI50 [1] [µM] | GI50 [3] [µM] | GI50 [5] [µM] | GI50 [6] [µM] | GI50 [7] [µM] | GI50 [8] [µM] | TGI [10] [µM] | GI50 [2] [µM] | GI50 [4] [µM] | GI50 [10] [µM] | GI50 [9] [µM]
1 | O=c1cc(N=Nc2ccc(O)cc2)[nH]c(=O)[nH]1 | > 100 µM | > 100 µM | > 100 µM | > 100 µM | > 100 µM | > 100 | > 100 | > 100 | > 100 µM | – | – | – | – | – | – | – | – | – | – | –
2 | CC(C)(C#N)c1cc(C(=O)Nc2cc(Nc3ncccc3-c3ncnc4nc[nH]c34)ccc2F)cc(C(F)(F)F)c1 | > 10 µM | > 3.73 µM | – | > 6.73 µM | > 1.98 µM | > 2.35 | > 4.14 | > 10 | > 6.56 µM | 4.84 | 0.372 | 0.589 | 0.242 | 0.514 | > 2.01 | > 3.23 | – | – | – | –
3 | CCC(/C=C/c1ccccc1)=N\Nc1ccc(Cl)c(Cl)c1 | 50.1 µM | > 100 µM | 65 µM | > 100 µM | 30 µM | > 100 | > 100 | > 100 | > 100 µM | – | – | – | – | – | – | > 100 | – | – | – | –
4 | Nc1c(C(=O)Nc2ccccc2)sc2nc3c(cc12)CN(Cc1ccccc1)CC3 | > 100 µM | > 100 µM | > 100 µM | > 100 µM | > 100 µM | > 100 | > 100 | > 100 | – | 55.8 | 76.1 | 9.58 | 11 | 21.7 | 14.8 | > 100 | 5.45 | 13 | 16.2 | –
5 | O=C(CN(/C=C/C(=O)C(F)(F)F)c1ccccc1)c1ccc(Cl)c(Cl)c1 | 40.2 µM | 27.5 µM | 29.9 µM | 37.5 µM | 26.3 µM | > 100 | 26.7 | 30.6 | 28.8 µM | 13.9 | 15.8 | 13.2 | 12.7 | 13.6 | 13 | 55.7 | 12.4 | 17.6 | 15.8 | 13.5
6 | CC(C)c1ccc(Nc2nccc(-c3cnn4ncccc34)n2)cc1 | 2.56 µM | 12.2 µM | > 10.2 µM | 4.88 µM | 0.749 µM | 4.29 | > 7 | > 9.19 | 10.2 µM | 0.466 | 0.635 | 0.218 | 0.324 | 0.483 | 0.809 | > 6.22 | 0.523 | 0.801 | 0.469 | 0.64
7 | COc1ccc2c(c1)C(C)Cc1c(Cl)nc(C)nc1N2C (stereo unspecified) | 36 µM | 7.92 µM | 8.93 µM | 32 µM | 11.2 µM | 16.4 | 37.2 | 33.5 | 30.7 µM | 4.14 | 2.29 | 2.55 | 1.84 | 3.48 | 3.72 | > 100 | 1.74 | 3.94 | 3.43 | 3.01
8 | CCCc1cc(=O)n2c(C(=O)Nc3ccccc3OC)c(C(=O)Nc3ccc(F)cc3)sc2n1 | 32.8 µM | 61.7 µM | > 160 µM | 10.2 µM | > 160 µM | 22.2 | > 160 | 34.6 | > 160 µM | 3.15 | 131 | 48.6 | 4.61 | 37.1 | 13.3 | > 160 | 19 | 2.91 | 71.8 | 30.7
9 | CN(C)c1ccc(C(=C2C=CC(=[N+](C)C)C=C2)c2ccc(N(C)C)cc2)cc1 | 0.165 µM and 0.163 µM | 0.244 µM and 0.885 µM | 1.17 µM and 0.934 µM | 0.709 µM and 1.17 µM | 0.324 µM and 0.214 µM | 0.36 | 0.37 | 1.23 | 1.41 µM and 1.5 µM | 0.0358 | 0.194 | 0.162 | 0.0363 | – | 0.0783 | 1.12 | – | 0.187 | 0.157 | 0.149
10 | CCCOC(=O)CCn1c(SC)nc2[nH]cc(-c3ccccc3)c2c1=O | 33.6 µM | 52.4 µM | > 100 µM | > 100 µM | 35.1 µM | 41 | 43 | > 100 | > 100 µM | 12.7 | 73.5 | 15.9 | 15.4 | 8.34 | 27.8 | 62 | 11.1 | 2.71 | 11.7 | 33.9
11 | COc1cc(C2C3=C(COC3=O)Nc3cc4c(cc32)CCC4)cc2c1OCO2 (stereo unspecified) | > 49.2 µM | 10.8 µM | 4.88 µM | 14.6 µM | 0.264 µM | 1.31 | 3.04 | 0.296 | 43.3 µM | 0.0531 | 0.26 | 0.0382 | 0.0428 | 0.0427 | 0.0411 | 59.8 | 0.0308 | 0.0881 | 12 | 0.486
12 | CSc1ccccc1C#Cc1ccccc1C#CCCCCO | 46.6 µM | 6.3 µM | 22.9 µM | 26.6 µM | 27.6 µM | 31.4 | 33 | 18 | 34.4 µM | 6.79 | 10 | 14 | 14 | 15.7 | 4.73 | 34.5 | 1.54 | 11 | 15 | 16.9
13 | Cc1c(Cl)cccc1NC1=C(Cl)C(=O)N(Cc2ccccc2)C1=O | 26.7 µM | 14.4 µM | 13.6 µM | 11 µM | 23.9 µM | 22.1 | 22.7 | 17.1 | – | 1.25 | 3.12 | 11.7 | 10.4 | 10.8 | 3.67 | > 100 | 3.01 | 1.9 | 25.4 | –
14 | COc1cc2c3c(n(C)c(=O)c2cc1OC)-c1cc2c(cc1/C3=C\C(N)CN)OCO2 (stereo unspecified) | 26.1 µM | 7.79 µM | 50 µM | 9.92 µM | 8.53 µM | 2.44 | 5.58 | 10 | 9.95 µM | 6.43 | 3.22 | 2.8 | 1.16 | 1.84 | 2.02 | 10.3 | 1.31 | 1.27 | 1.94 | 2.1
15 | Nc1ccc(-c2ccc(N)cc2I)c(I)c1 | 37.7 µM | 33.9 µM | 42.2 µM | 36.9 µM | 27.2 µM | 32 | 43.1 | 59.9 | 70.1 µM | 14 | 19.1 | 13.9 | 15.2 | 17.8 | 21.8 | 59.1 | 15.5 | 17.3 | 18.5 | 19.1
16 | Cc1ccc2c(c1)C(=O)c1c-2n(CCCBr)c(=O)c2cc([N+](=O)[O-])ccc12 | > 100 µM | > 100 µM | 77.6 µM | > 100 µM | > 100 µM | > 100 | – | > 100 | > 100 µM | 19.2 | 11.7 | 33 | 18.7 | – | 49.8 | 60.8 | 73.8 | 57.5 | 7.69 | > 100
17 | CC12CC(OC(=O)[C@]1(C)O)[C@@H]([C@]1(O)CC[C@H]3[C@@H]4C[C@H]5O[C@]56[C@@H](O)C=CC(=O)[C@]6(C)[C@H]4CC[C@@]31C)C2 (stereo partly specified) | – | > 100 µM | 36.4 µM | 10.1 µM | 17.8 µM | 13.2 | 14.4 | 86.7 | 9.94 µM | – | – | – | – | – | – | 32.9 | – | – | – | –
18 | Nc1cc(N)c2nc(-c3ccccc3)c(NCc3ccc(F)cc3)nc2c1 | 6.25 µM | 13.6 µM | – | 62.2 µM | 3.61 µM | > 100 | 4.6 | 3.81 | 4.07 µM | 2.54 | – | 1.88 | 12.8 | 2.38 | 1.5 | – | 3.5 | 23.7 | – | 1.89
19 | CC(C)C[C@H](NC(=O)[C@@H](O)[C@H](N)Cc1ccc([N+](=O)[O-])cc1)C(=O)O | – | > 25 µM | > 25 µM | > 25 µM | > 25 µM | > 25 | > 25 | > 25 | > 25 µM | – | > 25 | > 25 | > 25 | > 25 | > 25 | > 25 | > 25 | > 25 | > 25 | > 25
20 | Cc1ccc(Sc2ccc(C)cc2[N+](=O)[O-])c([N+](=O)[O-])c1 | > 100 µM | > 100 µM | > 100 µM | > 100 µM | > 100 µM | > 100 | > 100 | – | > 100 µM | – | – | – | – | – | – | – | – | – | – | –
21 | COc1ccc(-c2nn(-c3cccc(Cl)c3)cc2-c2cc(-c3ccccc3)nc(N)n2)cc1 | 9.17 µM | 11.7 µM | 4.53 µM | 26.4 µM | 28.4 µM | – | 10.4 | 22.3 | 15 µM | 2.65 | 2.25 | 7.88 | – | 2.83 | 10.5 | 17.1 | 3.12 | 4.94 | 4.49 | 2.32
22 | CCCCNC(=O)NS(=O)(=O)c1ccc(N2N=C(c3cc(C)ccc3C)CC2c2cc(OC)c(OC)c(OC)c2)cc1 (stereo unspecified) | 5.49 µM | – | 4.84 µM | 16.1 µM | 7.01 µM | – | 6.22 | 11.1 | – | 1.95 | 2.32 | 2.54 | – | 2.35 | 3.46 | 18.4 | – | 3.51 | 3.91 | –
23 | FC(F)(F)c1ccc(-c2cnc(Cl)nc2NCc2cc(C(F)(F)F)cc(C(F)(F)F)c2)cc1 | > 100 µM | > 100 µM | > 100 µM | > 100 µM | > 100 µM | > 100 | > 100 | > 100 | – | 3.08 | 3.82 | 5.19 | 3.32 | 3.28 | 3.92 | > 100 | 2.66 | 3.67 | 3.14 | –
24 | O=C(CCc1cc(-c2ccccc2)nc(=S)[nH]1)Nc1ccccc1[N+](=O)[O-] | > 100 µM | > 100 µM | > 100 µM | > 100 µM | > 100 µM | > 100 | > 100 | – | > 100 µM | – | – | – | – | – | – | – | – | – | – | –
25 | CCOC(=O)c1nc(-c2ccccc2)oc1OCC | > 100 µM | > 100 µM | > 100 µM | > 100 µM | > 100 µM | > 100 | > 100 | – | 38.6 µM | – | – | – | – | – | – | – | – | – | – | –
26 | CS/C(=N\c1nccs1)NC(=O)c1cccc(Cl)c1 | > 100 µM | > 100 µM | > 100 µM | > 100 µM | > 100 µM | > 100 | > 100 | – | > 100 µM | – | – | – | – | – | – | – | – | – | – | –
27 | CCOc1ccccc1/C=N\N=C(\N)N/N=C/c1ccccc1OCC | > 100 µM | > 100 µM | – | > 100 µM | > 100 µM | > 100 | > 100 | > 100 | > 100 µM | 2.82 | – | 1.63 | 3.12 | 5.86 | 2.84 | > 100 | 1.36 | 4.42 | 3.73 | 4.59
28 | CCN(CC)c1ccc(C(=N)c2ccc(N(C)C)cc2)cc1 | – | 2.88 µM | 5.69 µM | 4.45 µM | 1.94 µM | 3.39 | 3.19 | 7.18 | 16.5 µM | – | 1.85 | 0.159 | 0.155 | 0.218 | 1.7 | 9.42 | 0.161 | 1.71 | 1.27 | 2.04
29 | S=C(Nc1cc(Cl)c(Cl)cc1Cl)SCc1ccccc1 | 46.5 µM | 42.6 µM | – | > 100 µM | 37.7 µM | 83 | 45.3 | > 100 | > 100 µM | – | – | – | – | – | – | > 100 | – | – | – | –
